Data on one molecule can be found in patent US7725174B2 (priority 2006, dated 2010).

The structures appear in SMILES notation.

Test [1] concerns human volunteer subjects. Conditions: in vivo.
The test system of test [2] is human volunteer subjects. Conditions: one subject.
Excerpt: As with ApEn, these entropy measures compare changes in the time series of raw EEG data as it is generated. However, they are designed to determine qualities about the system which is generating the data. As such, they have potential to impart information about changes in CNS rather than just changes in the EEG. Information can be related about the CNS from a mesoscopic scale to a microscopic scale. […] Correlation dimension has not been used for real time analyses in the past because the computation usually requires large data sets for precise determination of the actual dimension of the data space. (See, Preissl, H., W. Lutzenberger, F. Pulvermuller, and N. Birbaumer, Fractal dimensions of short EEG time series in humans. Neurosci Lett, 1997. 225: p. 77-80.) To address this problem, we used short segments (e.g., 10 seconds) of data to calculate the correlation dimension and averaged the critical distance parameter ε, with each new estimate. Though this limits the accuracy with which signal dimension can be determined, it provides a reasonable estimate that changes as signal complexity changes.
Using the same raw EEG data, Lyapunov exponents of the EEG were also determined. Lyapunov exponents provide a qualitative indicator of signal stability. Unstable signals are sensitive to initial conditions and thus the predictability of their future trajectory is difficult. […]

Consider `CC(C)c1cccc(C(C)C)c1O` [propofol], for which, in test [1], the “change in ApEn with drug concentration” value is “decreased”. For the same molecule, the “Lyapunov exponent with increasing sedation” value in test [2] (FIG. 9) is “tends towards a positive value”. For the same molecule, the “changes in correlation dimension by clinical frequency band” value in test [2] (awake to deeper levels of sedation, FIG. 8) is listed as “appear in the higher frequency ranges first”.
